Target: T1, recombinant human LTA4 hydrolase (rhLTA4H) (Homo sapiens, UniProt P09960)
T1 construct: made in house; host or cells: Spodoptera frugiperda (Sf-9) cells, baculovirus (pFastBac1)
T1 sequence (P09960 1-611): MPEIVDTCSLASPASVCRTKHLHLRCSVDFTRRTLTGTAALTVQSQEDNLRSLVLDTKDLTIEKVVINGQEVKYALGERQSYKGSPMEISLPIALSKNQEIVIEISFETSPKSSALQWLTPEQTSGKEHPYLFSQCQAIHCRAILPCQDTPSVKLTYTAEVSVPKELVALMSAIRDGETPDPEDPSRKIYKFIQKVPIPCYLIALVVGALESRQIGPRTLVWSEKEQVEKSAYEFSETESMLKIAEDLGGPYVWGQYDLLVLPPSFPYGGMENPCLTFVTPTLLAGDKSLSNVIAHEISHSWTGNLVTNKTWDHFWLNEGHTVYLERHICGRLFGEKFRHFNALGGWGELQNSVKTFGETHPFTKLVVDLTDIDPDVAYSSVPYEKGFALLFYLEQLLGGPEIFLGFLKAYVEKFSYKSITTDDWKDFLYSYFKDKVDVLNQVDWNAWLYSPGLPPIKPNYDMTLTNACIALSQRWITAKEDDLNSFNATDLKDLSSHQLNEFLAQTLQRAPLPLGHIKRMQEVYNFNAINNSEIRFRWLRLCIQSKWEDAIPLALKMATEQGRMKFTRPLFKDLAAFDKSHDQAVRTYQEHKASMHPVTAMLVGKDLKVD
Experiment: Recombinant human LTA4 hydrolase assay for LTA4 hydrolase inhibitor activity
Assay type: biochemical
Conditions: recombinant human LTA4H, LTB4 quantified by enzyme-linked immunoassay; average of one to three determinations; read-out: IC50
Protocol: Recombinant Human LTA4 Hydrolase Assay for LTA4 Hydrolase Inhibitor Activity
Compounds of the present invention were tested for LTA4 hydrolase inhibitor activity against recombinant human LTA4 hydrolase (rhLTA4H). Vectors were prepared and used to express rhLTA4H essentially as follows: LTA4 hydrolase encoding DNA was amplified by polymerase chain reaction (PCR) using a human placental cDNA library as a template. Oligonucleotide primers for the PCR reaction were based on the 5′-end, and the complement of the 3′-end, of the published nucleotide sequence for the coding region of the human LTA4 hydrolase gene (C. D. Funk et al., Proc. Natl. Acad. Sci. USA 1987, 84:6677-6681). The amplified […] DNA fragment encoding LTA4 hydrolase was isolated and cloned into the pFastBac1 vector (Invitrogen). Recombinant baculovirus was generated as described by the manufacturer, and used to infect Spodoptera frugiperda (Sf-9) cells. Recombinant LTA4 hydrolase enzyme was purified from the infected Sf-9 cells essentially as described by J. K. Gierse et al. (Protein Expr. Purif. 1993, 4(5):358-366). The purified enzyme solution was adjusted to contain 0.29 mg/mL LTA4 hydrolase, 50 mM Tris (pH 8.0),150 mM NaCl, 5 mM dithiothreitol, 50% glycerol, and EDTA-free Complete protease inhibitor cocktail (Roche). The specific activity of the enzyme was about 3.8 μmol/min/mg.
LTA4 substrate was prepared from the methyl ester of LTA4 (Cayman Chemical) by treatment with 67 equiv. of NaOH under nitrogen at rt for 40 min. The LTA4 substrate in its free acid form was kept frozen at −80° C. until needed. Each compound was diluted to different concentrations in assay buffer (0.1 M potassium phosphate (pH 7.4), 5 mg/mL fatty acid free BSA) containing 10% DMSO. A 25-μL aliquot of each compound dilution was incubated for 10 min at rt with an equal volume of assay buffer containing 36 ng of recombinant human LTA4H. The solution was then adjusted to 200 μL with assay buffer. LTA4 (free acid) was thawed and diluted in assay buffer to a concentration of 357 ng/mL, and 25 μL (9 ng) of LTA4 substrate was added to the reaction mixture (total volume=225 μL) at time zero. Each reaction was carried out at rt for 10 min. The reaction was stopped by diluting 10 μL of the reaction mixture with 200 μL of assay buffer. LTB4 was quantifiedin the diluted sample by a commercially available enzyme-linked immunoassay (Cayman Chemical Co.), as recommended by the manufacturer. Positive controls, under essentially identical conditions but without addition of an inhibitor compound, and negative controls, containing all assay components except enzyme, were routinely run in each experiment. IC50 values were determined by fitting the activity data at different compound concentrations to a 4-parameter equation using the Grafit program (Erithacus software).
The IC50 values presented in the table below should be expected to fall within the typical three-fold variability of assays of this type. The values presented here are, in general, an average of one to three determinations.

| IC50 [nM] | SMILES |
| --- | --- |
| 4 | O=C1CCCCN1C1CCN(CCc2ccc(OCC(O)c3ccccc3)cc2)CC1 (stereo not drawn) [Example 27, 1′-{2-[4-(2-Hydroxy-2-phenyl-ethoxy)-phenyl]-ethyl}-[1,4′]bipiperidinyl-2-one] |
| 100 | Fc1ccccc1CCOc1ccc(OCCN2CCCCC2)cc1 [Example 70, 1-(2-{4-[2-(2-Fluoro-phenyl)-ethoxy]-phenoxy}-ethyl)-piperidine] |
| 352 | O=C(Nc1ccccc1)OCc1ccc(OCCN2CCCCC2)cc1 [Example 16, Phenyl-carbamic acid 4-(2-piperidin-1-yl-ethoxy)-benzyl ester] |
| 3 | COC(=O)C1CCN(CCc2ccc(OCC(O)c3ccccc3)cc2)CC1 (stereo not drawn) [Example 76, 1-{2-[4-(2—hydroxy-2-phenyl-ethoxy)-phenyl]-ethyl}-piperidine-4-carboxylic acid methyl ester] |
| 11 | O=C1CCCCN1C1CCN(CCc2ccc(OCCc3ccccc3)cc2)CC1 [Example 80, 1′-[2-(4-Phenethyloxy-phenyl)-ethyl]-[1,4′]bipiperidinyl-2-one] |
| 81 | O=C(O)C1CCN(CCc2ccc(OCC(O)c3ccccc3)cc2)CC1 (stereo not drawn) [Example 92] |
| 64 | O=C(Cc1ccc(OCCN2CCCCC2)cc1)Nc1ccccc1O [Example 44, N-(2—hydroxy-phenyl)-2-[4-(2-piperidin-1-yl-ethoxy)-phenyl]-acetamide] |
| 9 | NC(=O)C1CCN(Cc2ccc(OCCCc3ccccc3)cc2)CC1 [Example 110, 1-[4-(3-Phenyl-propoxy)-benzyl]-piperidine-4-carboxylic acid amide] |
| 1 | O=C(Oc1ccccc1)Oc1ccc(OCCN2CCCCC2)cc1 [Example 20, Carbonic acid phenyl ester 4-(2-piperidin-1-yl-ethoxy)-phenyl ester] |
| 343 | O=C(COc1ccc(CCN2CCC(N3CCCCC3=O)CC2)cc1)c1ccccc1 [Example 26, 1′-{2-[4-(2-Oxo-2-phenyl-ethoxy)-phenyl]-ethyl}-[1,4′]bipiperidinyl-2-one] |
| 6 | NC(=O)C1CCN(CCc2ccc(OCC(O)c3ccccc3)cc2)CC1 (stereo not drawn) [Example 78, 1-{2-[4-(2-Hydroxy-2-phenyl-ethoxy)-phenyl]-ethyl}-piperidine-4-carboxylic acid amide] |
| 23 | OC1CCCN(Cc2ccc(OCCCc3ccccc3)cc2)C1 (stereo not drawn) [Example 109, 1-[4-(3-Phenyl-propoxy)-benzyl]-piperidin-3-ol] |
| 78 | COC(=O)NC1CCN(Cc2ccc(OCCc3ccccc3)cc2)CC1 [Example 115, [1-(4-Phenethyloxy-benzyl)-piperidin-4-yl]-carbamic acid methyl ester] |
| 100 | CCOC(=O)C1CCCN(C2CCN(CCc3ccc(OCCc4ccccc4)cc3)CC2)C1 (stereo not drawn) [Example 18, 1′-[2-(4-Phenethyloxy-phenyl)-ethyl]-[1,4]′bipiperidinyl-3-carboxylic acid ethyl ester] |
| 184 | O=C(Oc1ccc(OCCN2CCCCC2)cc1)C1Cc2ccccc2C1 [Example 124, Indan-2-carboxylic acid 4-(2-piperidin-1-yl-ethoxy)-phenyl ester] |
| 36 | c1ccc(CCOc2ccc(CN3CCCCC3)cc2)cc1 [Example 95, 1-(4-Phenethyloxy-benzyl)-piperidine] |
| 6 | O=C1CCCN1C1CCN(CCOc2ccc(OCCc3ccccc3)cc2)CC1 [Example 82, 1-{1-[2-(4-Phenethyloxy-phenoxy)-ethyl]-piperidin-4-yl}-pyrrolidin-2-one] |
| 17 | NC(=O)NC1CCN(Cc2ccc(OCCc3ccccc3)cc2)CC1 [Example 114, [1-(4-Phenethyloxy-benzyl)-piperidin-4-yl]-urea] |

| SMILES | IC50 [nM] |
| --- | --- |
| O=C(Nc1ccccc1)Oc1ccc(OCCN2CCC(O)CC2)cc1 [Example 53, Phenyl-carbamic acid 4-[2-(4-hydroxy-piperidin-1-yl)-ethoxy]-phenyl ester] | 3 |
| O=C(Nc1ccccc1)Oc1ccc(OCCN2CCC(O)(c3ccc(Cl)c(C(F)(F)F)c3)CC2)cc1 [Example 54, Phenyl-carbamic acid 4-{2-[4-(4-chloro-3-trifluoromethyl-phenyl)-4-hydroxy-piperidin-1-yl]-ethoxy}-phenyl ester] | 7 |
| O=C(Nc1ccccc1)Oc1ccc(CCN2CCCCCC2)cc1 [Example 61, Phenyl-carbamic acid 4-(2-azepan-1-yl-ethyl)-phenyl ester] | 2 |
| O=C(Nc1ccccc1)Oc1ccc(CCCN2CCCCC2)cc1 [Example 37, Phenyl-carbamic acid 4-(3-piperidin-1-yl-propyl)-phenyl ester] | 15 |
| O=C(Nc1ccccc1)Oc1ccc(OCCN2CCC(Cc3ccccc3)CC2)cc1 [Example 50, Phenyl-carbamic acid 4-[2-(4-benzyl-piperidin-1-yl)-ethoxy]-phenyl ester] | 21 |
| O=C(Nc1cccs1)Oc1ccc(OCCN2CCCCC2)cc1 [Example 65, Thiophen-2-yl-carbamic acid 4-(2-piperidin-1-yl-ethoxy)-phenyl ester] | 7 |
| CCCN(CCOc1ccc(OC(=O)Nc2ccccc2)cc1)CC1CC1 [Example 49, Phenyl-carbamic acid 4-[2-(cyclopropylmethyl-propyl-amino)-ethoxy]-phenyl ester] | 4 |
| CN(C)C(=O)Oc1ccc(OCCN2CCC(O)(c3ccccc3)CC2)cc1 [Example 10, Dimethyl-carbamic acid 4-[2-(4-hydroxy-4-phenyl-piperidin-1-yl)-ethoxy]-phenyl ester] | 52 |
| CCCC1CCN(CCOc2ccc(OC(=O)Nc3ccccc3)cc2)CC1 [Example 41, Phenyl-carbamic acid 4-[2-(4-propyl-piperidin-1-yl)-ethoxy]-phenyl ester] | 1 |
| CCN(CC)CCOc1ccc(OC(=O)Nc2ccccc2)cc1 [Example 46, Phenyl-carbamic acid 4-(2-diethylamino-ethoxy)-phenyl ester] | 7 |
| O=C(Nc1ccccc1)Oc1ccc(OCCCN2CCC(O)(c3ccccc3)CC2)cc1 [Example 42, Phenyl-carbamic acid 4-[3-(4-hydroxy-4-phenyl-piperidin-1-yl)-propoxy]-phenyl ester] | 1 |
| O=C(Nc1cccc(Cl)c1)Oc1ccc(OCCN2CCCCC2)cc1 [Example 45, (3-Chloro-phenyl)-carbamic acid 4-(2-piperidin-1-yl-ethoxy)-phenyl ester] | 64 |
| O=C(Nc1ccccc1)Oc1ccc(OCCN2CCC(O)(c3ccc(Cl)cc3)CC2)cc1 [Example 57, Phenyl-carbamic acid 4-{2-[4-(4-chloro-phenyl)-4-hydroxy-piperidin-1-yl]-ethoxy}-phenyl ester] | 0.3 |
| O=C(Nc1ccccc1)Oc1ccc(OCCN2CCCCCC2)cc1 [Example 55, Phenyl-carbamic acid 4-(2-azepan-1-yl-ethoxy)-phenyl ester] | 0.5 |
| O=C(Nc1ccccc1)Oc1ccc(CCN2CCCC2)cc1 [Example 60, Phenyl-carbamic acid 4-(2-pyrrolidin-1-yl-ethyl)-phenyl ester] | 4 |

From patent publication US20060223792A1, “Phenyl and pyridyl LTA4H modulators” (priority 2005, published 2006)
